Results as given in patent publication US10570140B2, “Selective inhibitors of protein arginine methyltransferase 5 (PRMT5)” (Prelude Therapeutics, Incorporated, priority 2017, dated 2020).

What was measured:
PRMT5/MEP50 complex = PRMT5/MEP50 complex (Homo sapiens (Human), UniProt O14744); assay: PRMT5 biochemical assay (3H-SAM filter plate, histone H2A substrate); details: PRMT5/MEP50 5 nM, histone H2A 5 μM, SAM 1 μM; read-out: PRMT5 IC50
Protocol: Biochemical Assay Protocol
Compounds were solubilized and 3-fold diluted in 100% DMSO. […] Standard reactions were performed in a total volume of 50 μl in assay buffer, with histone H2A (5 μM final) as substrate. To this was added the PRMT5/MEP50 complex diluted to provide a final assay concentration of 5 nM and the compounds were allowed to preincubate for 15 to 20 minutes at room temperature. The reaction was initiated by adding S-[3H-methyl]-adenosyl-L-methionine (PerkinElmer) to final concentration of 1 μM. Following a 60 minutes incubation at 30° C., the reaction was stopped by adding 100 μL of 20% TCA. Each reaction was spotted onto filter plate (MultiScreen FB Filter Plate, Millipore), and washed 5 times with PBS buffer, Scintillation fluid was added to the filter plate and read in a scintillation counter. IC50 values were determined by fitting the data to the standard 4 parameters with Hill Slope using GraphPad Prism software.

sDMA [1] = assay: Western blot for symmetric di-methyl arginine (sDMA) IC50 in Granta cells; format: cell-based; details: Homo sapiens, 72 h; Granta-519 cell line, 3 days
Granta-519 cells = assay: Cell proliferation assay on Granta-519 cells (CCK-8, day 10); format: cell-based; details: Homo sapiens, 240 h, Granta-519 cell line, read-out: Prolif. IC50
Protocol: Cell Proliferation Assay to Determine IC50 on Granta-519 Cells
Granta-519 cells were maintained in PRMI 1640 (Corning Cellgro, Catalog #: 10-040-CV) medium supplemented with 10% v/v FBS (GE Healthcare, Catalog #: SH30910.03). Compounds were dissolved in DMSO to make 10 mM stocks and stored at −20° C. Nine-point, 3-fold serial dilutions were made with DMSO with top concentration at 1 mM (working stocks).
On day of experiment, compound working stocks were further diluted at 1:50 with fresh medium in 96 well plate, and 10 μL of diluted drugs were added to a new 96 well plate for proliferation assay. Cells growing at exponential phase were spun down at 1500 rpm for 4 min and resuspend in fresh medium to reach a density of 0.5×10^6 cells/ml. 200 ul of cells were added to 96 well plate containing diluted drugs and incubated for 3 days. DMSO was used a vehicle control.
One day 3, 10 μL of Cell Counting Kit-8 (CCK-8, Jojindo, CK04-13) solution was added to a new 96 well plate. Cells incubated with drugs for 3 days were resuspended by pipetting up and down, and 100 μL of cells were transferred to 96 well plate containing CCK-8 reagent to measure viable cells. Plates were incubated in CO2 incubator for 2 hours and OD450 values were measured with a microplate reader (iMark microplate reader, Bio-Rad).
For re-plating, compound working stocks were diluted at 1:50 with fresh medium and 10 μL of diluted drugs were added to a new 96 well plate. Cells from Day 3 plate (50 ul) were added to 96 well plate containing fresh drug and additional 150 μL of fresh medium was added to reach 200 μL volume. Plate was returned to CO2 incubator and incubated for 3 more days. Viable cells measurement and re-plating were repeated on day 6, and the final viable cells measurement was taken on day 10.
Percentage of viable cells, relative to DMSO vehicle control, were calculated and plotted in Graphpad Prism ([Inhibitor] vs. normalized response−Variable slope) to determine proliferation IC50 values on day 10.

[2] = Rat non-crossover PK study; format: in vivo
Protocol: In Vivo Pharmacokinetic Properties of Example 47.
In a rat (SD, male, non-fasted) non-crossover PK study, Example 47 was dosed at 1 mg/kg (DMA: 20% HPBCD=5:95, solution) via i.v. administration (N=3) and 1 mg/kg (0.5% Na CMC+0.5% Tween80, solution) via oral gauge (p.o.) (N=3).

Granta-519 = assay: Tumor growth inhibition in Granta-519 mouse xenograft model; format: in vivo
Protocol: In Vivo Pharmacodynamic Effect and Tumor Growth Inhibition of Example 47 in Granta-519 Mouse Xenograft Model.
(§1) Granta-519 cells was maintained in DMEM medium supplemented with 10% fetal bovine serum and 2 mM L-Glutamine at 37° C. in an atmosphere of 5% CO2 in air. Cells in exponential growth phase were harvested and 1×10^7 cells in 0.1 mL of PBS with Matrigel (1:1) were injected subcutaneously at the right lower flank region of each mouse for tumor development. The treatments were started when the mean tumor size reaches approximately 300-400 mm^3. […] Example 47 or vehicle (0.5% Na CMC+0.5% Tween80, suspension) were administered orally (QD for Example 47, QD for vehicle) at a dose of 30 mg/kg and 50 mg/kg for 19 and 16 days, respectively. Body weights and tumor size were measured every 3 to 4 days after randomization. Animals were euthanized 12 hours after last dosing, and blood and tumor samples were collected for analysis.

sDMA [3] = assay: sDMA levels in tumor samples of Granta-519 mouse xenograft (WB); format: in vivo
Protocol: as §1
To measure sDMA levels in tumor samples, tumors from each mouse were weighted and homogenized in RIPA buffer supplemented with protease inhibitor (cOmplete™, EDTA-free Protease Inhibitor Cocktail, Roche). Lysate were centrifuged at 14,000 rpm for 30 min at 4° C. to remove debris. Total protein concentrations of lysate were determined by BCA assay (ThermoFisher Scientific, Catalog #: 23225). Equal amount of total proteins from each tumor were separated on SDS-PAGE gel, and sDMA levels were determined by WB as described previously.

[4] = Body weight in Granta-519 mouse xenograft study; format: in vivo
Protocol: as §1

Chain of PRMT5/MEP50 complex (O14744 whole entry): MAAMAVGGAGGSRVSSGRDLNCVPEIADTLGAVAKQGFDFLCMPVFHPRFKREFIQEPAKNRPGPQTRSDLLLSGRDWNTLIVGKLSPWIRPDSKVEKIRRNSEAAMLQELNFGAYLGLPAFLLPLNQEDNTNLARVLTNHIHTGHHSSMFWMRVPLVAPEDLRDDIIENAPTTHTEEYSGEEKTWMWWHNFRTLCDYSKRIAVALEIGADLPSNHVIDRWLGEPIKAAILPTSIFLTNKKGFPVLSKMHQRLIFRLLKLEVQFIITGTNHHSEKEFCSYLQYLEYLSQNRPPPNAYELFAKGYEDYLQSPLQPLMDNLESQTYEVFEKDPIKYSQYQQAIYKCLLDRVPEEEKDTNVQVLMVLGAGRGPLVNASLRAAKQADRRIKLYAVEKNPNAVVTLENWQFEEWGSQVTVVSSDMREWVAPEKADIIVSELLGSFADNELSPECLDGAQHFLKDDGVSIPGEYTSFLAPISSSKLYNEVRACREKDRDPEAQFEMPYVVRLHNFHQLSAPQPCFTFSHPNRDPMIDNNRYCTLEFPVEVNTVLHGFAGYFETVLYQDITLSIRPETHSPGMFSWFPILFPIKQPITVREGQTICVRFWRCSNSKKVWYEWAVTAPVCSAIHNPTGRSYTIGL
Chain of PRMT5/MEP50 complex (Q9BQA1 whole entry partner): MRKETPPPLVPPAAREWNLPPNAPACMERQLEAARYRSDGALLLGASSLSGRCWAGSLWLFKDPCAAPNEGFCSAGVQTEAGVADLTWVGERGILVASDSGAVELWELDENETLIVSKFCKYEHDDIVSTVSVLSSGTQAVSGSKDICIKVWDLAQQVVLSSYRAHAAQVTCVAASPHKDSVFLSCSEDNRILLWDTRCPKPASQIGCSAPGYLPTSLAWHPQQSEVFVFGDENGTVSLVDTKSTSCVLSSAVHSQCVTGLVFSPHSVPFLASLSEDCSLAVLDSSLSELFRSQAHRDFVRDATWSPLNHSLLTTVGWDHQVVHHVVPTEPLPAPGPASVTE

SMILES | IC50 (PRMT5/MEP50 complex) | IC50 (sDMA [1]) | IC50 (Granta-519 cells) | further results
Nc1ccc2ccc(OC[C@H]3O[C@@H](n4ccc5c(N)ncnc54)[C@H](O)[C@@]3(O)C(F)(F)F)cc2n1 [Example 2, (2R,3S,4R,5R)-5-(4-amino-7H-pyrrolo[2,3-d]pyrimidin-7-yl)-2-(((2-aminoquinolin-7-yl)oxy)methyl)-3-(trifluoromethyl)tetrahydrofuran-3,4-diol] | 1.9 nM | 21 nM |  | 
C[C@@]1(O)[C@@H]([C@H](O)c2ccc(Cl)cc2)O[C@@H](n2ccc3c(N)ncnc32)[C@@H]1O [Example 26, (2R,3S,4R,5R)-5-(4-amino-7H-pyrrolo[2,3-d]pyrimidin-7-yl)-2-((R)-(4-chlorophenyl)(hydroxy)methyl)-3-methyltetrahydrofuran-3,4-diol] | 4.8 nM | 51.4 nM | 660 nM | 
C[C@@]1(O)[C@@H](COc2ccc3ccc(N)nc3c2)O[C@@H](n2ccc3c(N)ncnc32)[C@@H]1O [Example 1, (2R,3S,4R,5R)-5-(4-amino-7H-pyrrolo[2,3-d]pyrimidin-7-yl)-2-(((2-aminoquinolin-7-yl)oxy)methyl)-3-methyltetrahydrofuran-3,4-diol] | 0.75 nM | 15 nM | 40 nM | 
C#C[C@@]1(O)[C@@H](COc2ccc3ccc(N)nc3c2)O[C@@H](n2ccc3c(N)ncnc32)[C@@H]1O [Example 3, (2R,3S,4R,5R)-5-(4-amino-7H-pyrrolo[2,3-d]pyrimidin-7-yl)-2-(((2-aminoquinolin-7-yl)oxy)methyl)-3-ethynyltetrahydrofuran-3,4-diol] | 1.6 nM | 44.2 nM |  | 
C[C@@]1(O)[C@@H](Cc2ccc(Cl)c(Cl)c2)O[C@@H](n2ccc3c(N)ncnc32)[C@@H]1O [Example 50, (2R,3S,4R,5R)-5-(4-amino-7H-pyrrolo[2,3-d]pyrimidin-7-yl)-2-(3,4-dichlorobenzyl)-3-methyltetrahydrofuran-3,4-diol] | 17 nM | 9000 nM |  | 
C[C@@]1(O)[C@@H](COc2ccc3ccc(N)nc3c2)O[C@@H](n2cc(F)c3c(N)ncnc32)[C@@H]1O [Example 6, (2R,3S,4R,5R)-5-(4-amino-5-fluoro-7H-pyrrolo[2,3-d]pyrimidin-7-yl)-2-(((2-aminoquinolin-7-yl)oxy)methyl)-3-methyltetrahydrofuran-3,4-diol] | 0.85 nM | 1 nM | 30 nM | 
Cc1cc([C@@H](O)[C@H]2O[C@@H](n3ccc4c(N)ncnc43)[C@H](O)[C@]2(C)O)ccc1Cl [Example 56, (2R,3S,4R,5R)-5-(4-amino-7H-pyrrolo[2,3-d]pyrimidin-7-yl)-2-((R)-(4-chloro-3-methylphenyl)(hydroxy)methyl)-3-methyltetrahydrofuran-3,4-diol] | 68 nM |  | 203 nM | 
C[C@@]1(O)[C@@H](COc2cccc(CN)c2)O[C@@H](n2ccc3c(N)ncnc32)[C@@H]1O [Example 22, (2R,3S,4R,5R)-5-(4-amino-7H-pyrrolo[2,3-d]pyrimidin-7-yl)-2-((3-(aminomethyl)phenoxy)methyl)-3-methyltetrahydrofuran-3,4-diol] | 126 nM | 60000 nM |  | 
CSC[C@H]1O[C@@H](n2ccc3c(N)ncnc32)[C@H](O)[C@]1(C)O [Example 17, (2S,3S,4R,5R)-5-(4-amino-7H-pyrrolo[2,3-d]pyrimidin-7-yl)-3-methyl-2-((methylthio)methyl)tetrahydrofuran-3,4-diol] | 900 nM | 1000 nM | 200000 nM | 
C[C@@]1(O)[C@@H]([C@H](O)c2ccc(Cl)c(Cl)c2)O[C@@H](n2ccc3c(N)ncnc32)[C@@H]1O [Example 47, (2R,3S,4R,5R)-5-(4-amino-7H-pyrrolo[2,3-d]pyrimidin-7-yl)-2-((R)-(3,4-dichlorophenyl)(hydroxy)methyl)-3-methyltetrahydrofuran-3,4-diol] | 1.5 nM | 31 nM | 75 nM | half-life ([2]; blood, iv, rat (SD, male, non-fasted), 1 mg/kg i.v., average): 4.1 h; Vd ([2]; male, SD, blood, iv, rat, 1 mg/kg i.v., average, read-out: Vss): 3.1 L/kg; bioavailability ([2]; male, SD, blood, po, rat, 1 mg/kg p.o.): > 100%; clearance ([2]; male, SD, whole blood, iv, rat, 1 mg/kg i.v., average): 8.8 mL/min/kg; dose normalized AUC ([2]; rat, 1 mg/kg p.o., average): 3246 ng·kg·h/mL/mg; tumor growth inhibition (Granta-519; 30 mg/kg orally QD, 19 days, average (N=5)): 46%; tumor growth inhibition (Granta-519; 50 mg/kg orally QD, 16 days, average): 79%; sDMA in tumor (sDMA [3]; 50 mg/kg): no detectable sDMA; inhibition at 30 mg/kg (sDMA [3]; Mus musculus, Granta-519, 30 mg/kg): > 90%; body weight loss ([4]; 30 mg/kg orally QD, 19 days): 1%; body weight loss ([4]; 50 mg/kg orally QD, 16 days): 8%

The next lines start with results.

IC50 (PRMT5/MEP50 complex) | IC50 (sDMA [1]) | SMILES | IC50 (Granta-519 cells) | further results
11 nM |  | Cc1cc([C@@H](O)[C@H]2O[C@@H](n3ccc4c(C)ncnc43)[C@H](O)[C@]2(C)O)ccc1Cl [Example 57, (2R,3S,4R,5R)-2-((R)-(4-chloro-3-methylphenyl)(hydroxy)methyl)-3-methyl-5-(4-methyl-7H-pyrrolo[2,3-d]pyrimidin-7-yl)tetrahydrofuran-3,4-diol] | 913 nM | 
7 nM | 415 nM | Cc1ncnc2c1ccn2[C@@H]1O[C@H]([C@H](O)c2ccc(C(F)(F)F)cc2)[C@@](C)(O)[C@H]1O [Example 62, (2R,3S,4R,5R)-2-((R)-hydroxy(4-(trifluoromethyl)phenyl)methyl)-3-methyl-5-(4-methyl-7H-pyrrolo[2,3-d]pyrimidin-7-yl)tetrahydrofuran-3,4-diol] |  | 
3 nM | 71 nM | C[C@@]1(O)[C@@H]([C@H](O)c2ccc(F)c(C(F)(F)F)c2)O[C@@H](n2ccc3c(N)ncnc32)[C@@H]1O [Example 63, (2R,3S,4R,5R)-5-(4-amino-7H-pyrrolo[2,3-d]pyrimidin-7-yl)-2-((R)-(4-fluoro-3-(trifluoro-methyl)phenyl)(hydroxy)methyl)-3-methyltetrahydrofuran-3,4-diol] | 231 nM | 
1 nM | 46 nM | Cc1ncnc2c1ccn2[C@@H]1O[C@H](COc2ccn3c(C)cnc3c2)[C@@](C)(O)[C@H]1O [Example 67, (2R,3S,4R,5R)-3-methyl-5-(4-methyl-7H-pyrrolo[2,3-d]pyrimidin-7-yl)-2-(((3-methylimidazo[1,2-a]pyridin-7-yl)oxy)methyl)tetrahydrofuran-3,4-diol] |  | 
11 nM | 3160 nM | Cc1ncnc2c1ccn2[C@@H]1O[C@H]([C@H](O)c2ccc(Cl)c(Cl)c2)[C@@](C)(O)[C@H]1O [Example 58, (2R,3S,4R,5R)-2-((R)-(3,4-dichlorophenyl)(hydroxy)methyl)-3-methyl-5-(4-methyl-7H-pyrrolo[2,3-d]pyrimidin-7-yl)tetrahydrofuran-3,4-diol] | 10000 nM | 
